The test relates to newborn Sprague Dawley rats. Kind of test: Obstructive Sleep Apnea Studies (L-tryptophan plus pargyline). It is filed as in vivo, rat. The protocol: Intraperitoneal application of L-tryptophan (10 mg/kg) and pargyline (50 mg/kg) to anaesthetized newborn rats depresses the amplitude of the inspiratory discharges of the genioglossal muscle and induces obstructive apneas (OA). The following procedure describes how to determine the efficacy of the compounds of this invention when compared with the efficacy of theophylline.
Experiments are carried out on newborn Sprague Dawley rats. The animals are anaesthetized by intraperitoneal injection of low doses of sodium pentobarbitone (7-10 mg/kg), kept lying (dorsal cubitus) on a warming blanket and are spontaneously ventilating.
The electromyogram (EMG) activity of the genioglossal muscles and the diaphragm are recorded with fine insulated wires (bipolar recordings) inserted within the muscles, filtered (100-3,000 Hz), amplified (×5-10,000) and integrated (time constant 50 ms). The rib cage movements are recorded via a captor gently touching the lower ribs and/or the abdominal wall. The air flow changes resulting from the respiratory chest movements are recorded via a facial mask and a highly sensitive pressure recorder. […]
Effects of theophylline pre-treatment on the occurrence of obstructive apneas induced by 1-tryptophan and pargyline injection are measured as follows: Five newborn rats receive theophylline at 10 mg/kg and 5 other animals receive theophylline at 30 mg/kg. […]

These results are taken from patent publication US7625889B2, “Substituted bis aryl and heteroaryl compounds as selective 5HT2A antagonists” (Aventis Pharmaceuticals Inc., priority 2005, dated 2009).

The structures appear in SMILES notation.

Turning to `Cn1c(=O)c2[nH]cnc2n(C)c1=O` [theophylline], the “induction of OAs after L-Trp+Prg injection” value (theophylline 10 or 30 mg/kg) is listed as “not prevented”. Where the note is “theophylline pre-treatment 10 mg/kg or 30 mg/kg”, the “depression of amplitude of GG inspiratory discharges by L-Trp+Prg injection” value is on record as “not prevented”.
